Patent US5328917A, “Piperidine compounds for treating anoxia, cerebral ischemia migraine or epilepsy” (Novo Nordisk A/S, priority 1990, dated 1994)
Structures can show the parent of a compound that is named as a salt.

test system: peripheral calcium uptake, e.g. in blood vessels and the heart; assay: not given; conditions: well known calcium antagonists; cited from earlier work

| Structure (SMILES) | activity against peripheral calcium uptake |
| --- | --- |
| COc1ccc([C@@H]2Sc3ccccc3N(CCN(C)C)C(=O)[C@@H]2OC(C)=O)cc1 [Diltiazem] | have activity against peripheral calcium uptake |
| COC(=O)C1=C(C)NC(C)=C(C(=O)OC)C1c1ccccc1[N+](=O)[O-] [Nifedipine] | have activity against peripheral calcium uptake |
| COc1ccc(CCN(C)CCCC(C#N)(c2ccc(OC)c(OC)c2)C(C)C)cc1OC (centres unmarked) [Verapamil] | have activity against peripheral calcium uptake |

test system: voltage operated calcium channels; assay: Inhibition of depolarization-stimulated 45Ca uptake into brain synaptosomes (crude P2 fraction of cerebral cortex); assay type: biochemical, male Wistar rat; conditions: rat cerebral cortex synaptosomes; KCl-depolarized, corrected for basal uptake; 15 s uptake at 37° C.; estimated from dose response curves
From the text: The pharmacological properties of the compounds of the invention can be illustrated by determining their capability to inhibit calcium uptake into brain synaptosomes. Depolarization of neuronal membranes leads to an opening of socalled "voltage operated calcium channels" (VOC) in the membranes which allows a massive influx of calcium from the extracellular space. A crude synaptosomal preparation (socalled P2 fraction) contains small vesicles surrounded by neuronal membrane and it is possible in such a preparation to study a depolarization-induced opening of VOC. In the present model ^45 Ca influx is induced in the synaptosomes by depolarization with elevated potassium concentrations, and the effect of test substances on this stimulated uptake is studied ([…]. and Blaustein, M. P., Mol. […] A male Wistar rat is decapitated and the cerebral cortex removed and homogenized in 10 ml. of ice-cold 0.32M sucrose using a glass homogenizer with a teflon pestle. All subsequent steps for isolation of synaptosomes are done at 0°-4° C. […] This pellet (P2) is resuspended in 0.32M sucrose (5 ml per g of original tissue) with a teflon pestle. […] The tubes are pre-incubated for 30 min on ice and then for 6 min at 37° C. in a water bath. […] The incubation is continued for 15 s. […] The amount of radioactivity on the filter disc is determined by liquid scintillation spectrometry. Test substances are dissolved in 10 ml of 48% ethanol at a concentration of 0.44 mg/ml. Dilution are made in 48% ethanol to give final concentrations of 0.1, 0.3, 1, 3 and 10 μg/ml. Experiments are performed in triplicate. […] The IC50 value is estimated from dose response curves.

| IC50 (concentration of test substance which inhibits 50% of stimulated uptake of 45Ca) [µg/mL] | Structure (SMILES) |
| --- | --- |
| 3.8 | CCCCN1CC[C@@H](c2ccc(N(C)C)cc2)[C@H](COc2ccc(Cl)cc2)C1 (relative stereo) [Compound 51, (+-) trans 1-butyl-3-(4-chlorophenoxymethyl)-4-(4-dimethylaminophenyl) piperidine, hydrochloride] |
| 2.8 | CCCCN1CC[C@@H](c2ccc(N(C)C)cc2)[C@H](COc2ccc(Cl)c(Cl)c2)C1 (relative stereo) [Compound 52, (+-) trans 1-butyl-3-(3,4-dichlorophenoxymethyl) 4-(4-dimethylaminophenyl)piperidine, HCl] |
| 3.2 | CCCCN1CC[C@@H](c2ccc(N(C)C)cc2)[C@H](COc2ccc([N+](=O)[O-])cc2)C1 (relative stereo) [Compound 57, (+-) trans 1-butyl-4-(4-dimethylaminophenyl)-3-(4-nitrophenoxymethyl) piperidine, HCl] |
| 6.4 | CCCCCN1CC[C@@H](c2ccc(F)cc2)[C@H](COCc2ccc(C(F)(F)F)cc2)C1 (single isomer, unassigned) [Compound 36, (-) trans-4-(4-fluorophenyl)-1-pentyl-3-(4-trifluoromethylbenzyloxymethyl)-piperidine, HCl] |
| 5.5 | CCCCCN1CC[C@@H](c2ccc(F)cc2)[C@H](COCc2cccc(C(F)(F)F)c2)C1 (single isomer, unassigned) [Compound 60, (-)trans-4-(4-fluorophenyl)-1-pentyl-3-(3-trifluoromethylbenzyloxymethyl)-piperidine, HCl] |
| 2.7 | CCCCN1CCC(c2ccccc2)C(CNCc2ccc(OC)cc2)C1 (centres unmarked) [Compound 20, 1-butyl-3-(4-methoxybenzylaminomethyl)-4-phenylpiperidine, HCl] |
| 4 | CCCCN1CCC(c2ccccc2)C(CNc2ccc(C(F)(F)F)cc2)C1 (centres unmarked) [Compound 22, 1-butyl-3-(4-trifluoromethylphenylaminomethyl)-4-phenylpiperidine, HCl] |

The next lines start with the molecule.

| Structure (SMILES) | IC50 (concentration of test substance which inhibits 50% of stimulated uptake of 45Ca) [µg/mL] |
| --- | --- |
| CCCCN1CC[C@@H](c2ccc(N(C)C)cc2)[C@H](COc2ccc(C(F)(F)F)cc2)C1.Cl (racemic) [Compound 11, (+-)trans-1-butyl-4-(4-dimethylaminophenyl)-3-(4-trifluoromethylphenoxymethyl)piperidine, hydrochloride] | 4.9 |
| CCCCN1CC[C@@H](c2ccc(N(C)C)cc2)[C@H](COc2ccc3c(c2)OCO3)C1.Cl (racemic) [Compound 15, (+-)trans-1-butyl-4-(4-dimethylaminophenyl)-3-(3,4-methylenedioxyphenoxymethyl)piperidine, hydrochloride] | 5.0 |
| CCCCN1CC[C@@H](c2ccc(N(C)C)cc2)[C@H](COc2cccc(C(F)(F)F)c2)C1.Cl (racemic) [Compound 17, (+-)trans-1-butyl-4-(4-dimethylaminophenyl)-3-(3-trifluoromethylphenoxymethyl)piperidine, hydrochloride] | 7.4 |
| O=[N+]([O-])c1ccc([C@@H]2CCNC[C@H]2COc2cccc(C(F)(F)F)c2)cc1 (single isomer, unassigned) [Compound 9, (31)trans-4-(4-nitrophenyl)-3-(3-trifluoromethylphenoxymethyl)piperidine, hydrochloride] | 7.2 |
| CCCCCN1CC[C@@H](c2ccc(N)cc2)[C@H](COc2ccc3c(c2)OCO3)C1.Cl (single isomer, unassigned) [Compound 10, (+)trans-4-(4-aminophenyl)-3-(3,4-methylenedioxyphenoxymethyl)-1-pentylpiperidine, hydrochloride] | 8.9 |

same assay, conditions: rat cerebral cortex synaptosomes; KCl-depolarized, corrected for basal uptake; 15 s uptake at 37° C.; estimated from dose response curves; dihydrochloride

| Structure (SMILES) | IC50 (concentration of test substance which inhibits 50% of stimulated uptake of 45Ca) [µg/mL] |
| --- | --- |
| CCCCN1CC[C@@H](c2ccc(N(C)C)cc2)[C@H](COc2ccc(C(F)(F)F)cc2)C1.Cl.Cl (single isomer, unassigned) [Compound 64, (+)-trans-1-butyl-4-(4-dimethylaminophenyl)-3-(4-trifluoromethylphenoxymethyl)piperidine dihydrochloride] | 4.2 |
| CCCCN1CC[C@@H](c2ccc(N(C)C)cc2)[C@H](COc2ccc(C(F)(F)F)cc2)C1.Cl.Cl (single isomer, unassigned) [Compound 65, (-)-trans-1-butyl-4-(4-dimethylaminophenyl)-3-(4-trifluoromethylphenoxymethyl)piperidine dihydrochloride] | 6.5 |
